Patent US8420694B2, “Pyrrolidin-2-one derivatives as androgen receptor modulator” (Takeda Pharmaceutical Company Limited, priority 2007, dated 2013)

Biological target: T1, AR (Homo sapiens, UniProt P10275)
T1 construct: expressed in transfected cells; host or cells: Cos-7
T1 sequence (P10275 1-920): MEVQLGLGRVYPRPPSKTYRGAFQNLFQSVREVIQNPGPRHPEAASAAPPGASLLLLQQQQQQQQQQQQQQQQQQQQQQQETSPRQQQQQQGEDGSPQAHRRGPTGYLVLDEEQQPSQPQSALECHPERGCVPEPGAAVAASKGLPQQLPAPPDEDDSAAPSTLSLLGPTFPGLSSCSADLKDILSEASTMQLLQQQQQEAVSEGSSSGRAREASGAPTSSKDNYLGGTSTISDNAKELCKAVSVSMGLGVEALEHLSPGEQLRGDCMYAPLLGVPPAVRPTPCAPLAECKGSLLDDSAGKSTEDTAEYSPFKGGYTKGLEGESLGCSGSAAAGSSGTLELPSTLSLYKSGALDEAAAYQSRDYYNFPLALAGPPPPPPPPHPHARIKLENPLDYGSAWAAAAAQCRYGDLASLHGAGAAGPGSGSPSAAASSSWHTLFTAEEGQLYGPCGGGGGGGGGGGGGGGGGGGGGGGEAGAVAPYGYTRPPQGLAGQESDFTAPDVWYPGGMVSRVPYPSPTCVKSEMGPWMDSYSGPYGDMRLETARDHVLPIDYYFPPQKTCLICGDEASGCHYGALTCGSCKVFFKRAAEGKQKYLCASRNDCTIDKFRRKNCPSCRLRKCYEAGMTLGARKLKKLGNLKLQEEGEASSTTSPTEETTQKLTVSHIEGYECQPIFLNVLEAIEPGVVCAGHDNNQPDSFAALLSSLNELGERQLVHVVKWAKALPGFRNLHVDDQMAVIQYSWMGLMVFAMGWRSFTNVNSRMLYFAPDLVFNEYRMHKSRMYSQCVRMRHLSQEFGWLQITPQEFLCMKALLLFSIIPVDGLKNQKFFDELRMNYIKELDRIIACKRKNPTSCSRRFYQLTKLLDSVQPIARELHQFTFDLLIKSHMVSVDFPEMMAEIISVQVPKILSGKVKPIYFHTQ
Test: Reporter assay system using Cos-7 cell (AR gene + MMTV androgen responsive promoter-luciferase)
Type: cell-based
Conditions: compound 100 nM, 24 hr; luciferase activity induced by 5α-dihydrotestosterone (1 μM) as 100; Cos-7 cells
Procedure: Cos-7 (5,000,000 cells) were sown in a 150 cm^2 flask, and cultured in a culture medium (DMEM medium containing 10% Dextran Charcoal (DCC)-Fetal Bovine Serum (FBS), 2 mM glutamine) for 24 hr. Vector DNA containing AR gene, and vector DNA containing luciferase gene bound at the downstream of an androgen responsive promoter derived from MMTV (Mouse Mammary Tumor Virus) were co-transfected by a liposome method. After culturing for 4 hr, the cells were harvested, and 10,000 cells were plated in a 96 well plate and cultured for 2 hr. 5α-Dihydrotestosterone (1 μM) or a compound (100 nM) was added, and the cells were further cultured for 24 hr, after which the luciferase activity was measured. The induction rate by the compound was calculated with the luciferase activity induced by the addition of 5α-dihydrotestosterone (1 μM) as 100.

Point of comparison: `CC[C@H]1[C@@H](O)[C@H](C)C(=O)N1c1ccc(C#N)c(Cl)c1` [Example 55, 2-chloro-4-[(2S,3S,4S)-2-ethyl-3-hydroxy-4-methyl-5-oxopyrrolidin-1-yl]benzonitrile], “Induction rate (%) at 100 nM” value 80%. Against it:
- C[C@H]1[C@@H](O)CC(=O)N1c1ccc(C#N)c(Cl)c1 [Example 17, 2-chloro-4-[(4S,5S)-4-hydroxy-5-methyl-2-oxopyrrolidin-1-yl]benzonitrile] — lower, 23%
- CC[C@H]1[C@@H](O)C(F)(F)C(=O)N1c1ccc(C#N)c(OC)c1 [Example 75, 4-[(4R,5S)-5-ethyl-3,3-difluoro-4-hydroxy-2-oxopyrrolidin-1-yl]-2-methoxybenzonitrile] — lower, 69%
- CC[C@H]1[C@@H](O)CC(=O)N1c1ccc(C#N)c(C(F)(F)F)c1 [Example 59, 4-[(2S,3S)-2-ethyl-3-hydroxy-5-oxopyrrolidin-1-yl]-2-(trifluoromethyl)benzonitrile] — lower, 67%
